Laboratory results from ChEMBL document CHEMBL1697731, “Cheminformatics analysis of assertions mined from literature that describe drug-induced liver injury in different species” (Chem Res Toxicol, 2010).

Tests used:
Hepatotoxicity [1] = experiment: Literature-mined compound from Fourches et al multi-species drug-induced liver injury (DILI) dataset, effect in non-rodents
Hepatotoxicity [2] = experiment: Literature-mined compound from Fourches et al multi-species drug-induced liver injury (DILI) dataset, effect in humans; conditions: human
Hepatotoxicity [3] = experiment: Literature-mined compound from Fourches et al multi-species drug-induced liver injury (DILI) dataset, effect in rodents; conditions: rodentia

Compound | Hepatotoxicity (Hepatotoxicity [1]; Liver) | Hepatotoxicity (Hepatotoxicity [2]; Liver) | Hepatotoxicity (Hepatotoxicity [3]; Liver) | Hepatotoxicity (Hepatotoxicity [1]) | Hepatotoxicity (Hepatotoxicity [2]) | Hepatotoxicity (Hepatotoxicity [3])
Cc1cccc(C(C)c2cnc[nH]2)c1C (stereo not given) [MEDETOMIDINE] | drug-induced liver injury reported | drug-induced liver injury reported | no drug-induced liver injury reported | – | – | –
CC(C)(C)NCC(O)c1ccc(O)c(CO)c1 (stereo not given) [ALBUTEROL] | no drug-induced liver injury reported | no drug-induced liver injury reported | drug-induced liver injury reported | – | – | –
COc1ccc(-c2cc(=O)c3c(O)cc(O[C@@H]4O[C@H](CO[C@@H]5O[C@@H](C)[C@H](O)[C@@H](O)[C@H]5O)[C@@H](O)[C@H](O)[C@H]4O)cc3o2)cc1O [DIOSMIN] | – | – | – | no drug-induced liver injury reported | no drug-induced liver injury reported | drug-induced liver injury reported
COc1cc([C@@H]2c3cc4c(cc3[C@@H](O[C@@H]3O[C@@H]5CO[C@@H](C)O[C@H]5[C@H](O)[C@H]3O)[C@H]3COC(=O)[C@H]23)OCO4)cc(OC)c1O [ETOPOSIDE] | no drug-induced liver injury reported | drug-induced liver injury reported | drug-induced liver injury reported | – | – | –
CC(C)n1c(/C=C/C(O)CC(O)CC(=O)O)c(-c2ccc(F)cc2)c2ccccc21 (stereo not given) [FLUVASTATIN] | no drug-induced liver injury reported | drug-induced liver injury reported | drug-induced liver injury reported | – | – | –
C[C@@H]1O[C@@H](O[C@@H]2C=C3CC[C@@H]4[C@H](CC[C@]5(C)[C@@H](c6ccc(=O)oc6)CC[C@]45O)[C@@]3(C)CC2)[C@H](O)[C@H](O)[C@H]1O[C@@H]1O[C@H](CO)[C@@H](O)[C@H](O)[C@H]1O | – | – | – | no drug-induced liver injury reported | no drug-induced liver injury reported | drug-induced liver injury reported
COc1c(N2C[C@@H]3CCCN[C@@H]3C2)c(F)cc2c(=O)c(C(=O)O)cn(C3CC3)c12 [MOXIFLOXACIN] | – | – | – | no drug-induced liver injury reported | drug-induced liver injury reported | no drug-induced liver injury reported
CCC1(c2ccccc2)C(=O)NCNC1=O [PRIMIDONE] | – | – | – | drug-induced liver injury reported | drug-induced liver injury reported | no drug-induced liver injury reported
CC[C@H]1OC(=O)[C@H](C)[C@@H](O[C@H]2C[C@@](C)(OC)[C@@H](O)[C@H](C)O2)[C@H](C)[C@@H](O[C@@H]2O[C@H](C)C[C@H](N(C)C)[C@H]2O)[C@](C)(O)C[C@@H](C)/C(=N\OCOCCOC)[C@H](C)[C@@H](O)[C@]1(C)O [ROXITHROMYCIN] | – | – | – | no drug-induced liver injury reported | drug-induced liver injury reported | drug-induced liver injury reported
C=C/C=C\[C@H](C)[C@H](OC(N)=O)[C@@H](C)[C@H](O)[C@@H](C)C/C(C)=C\[C@H](C)[C@@H](O)[C@@H](C)/C=C\[C@@H](O)C[C@@H]1OC(=O)[C@H](C)[C@@H](O)[C@H]1C [DISERMOLIDE] | – | – | – | no drug-induced liver injury reported | drug-induced liver injury reported | no drug-induced liver injury reported
CCCCCCCC/C=C\CCCCCCCC(=O)O [OLEIC ACID] | – | – | – | no drug-induced liver injury reported | no drug-induced liver injury reported | drug-induced liver injury reported
CCCCC(C)(O)C/C=C/[C@H]1[C@H](O)CC(=O)[C@@H]1CCCCCCC(=O)OC (stereo not given in full) [MISOPROSTOL] | – | – | – | drug-induced liver injury reported | no drug-induced liver injury reported | drug-induced liver injury reported
CN(C)C(=N)N=C(N)N [METFORMIN] | drug-induced liver injury reported | drug-induced liver injury reported | drug-induced liver injury reported | – | – | –
CCN(CC)CCCC(C)Nc1c2ccc(Cl)cc2nc2ccc(OC)cc12 (stereo not given) [QUINACRINE] | – | – | – | drug-induced liver injury reported | drug-induced liver injury reported | drug-induced liver injury reported
COc1cccc2c1C(=O)c1c(O)c3c(c(O)c1C2=O)C[C@@](O)(C(=O)CO)C[C@@H]3O[C@H]1C[C@H](N)[C@@H](O)[C@H](C)O1 [EPIRUBICIN] | – | – | – | no drug-induced liver injury reported | no drug-induced liver injury reported | drug-induced liver injury reported
OCC(CO)N[C@H]1C[C@](O)(CO)[C@@H](O)[C@H](O)[C@H]1O [VOGLIBOSE] | – | – | – | no drug-induced liver injury reported | drug-induced liver injury reported | drug-induced liver injury reported
CN1CC[C@]23c4c5ccc(O)c4O[C@H]2C(=O)CC[C@@]3(O)[C@H]1C5 [OXYMORPHONE] | – | – | – | no drug-induced liver injury reported | drug-induced liver injury reported | no drug-induced liver injury reported
Nc1nc(Cl)nc2c1ncn2[C@H]1C[C@H](O)[C@@H](CO)O1 [CLADRIBINE] | – | – | – | no drug-induced liver injury reported | drug-induced liver injury reported | no drug-induced liver injury reported

Compound | Hepatotoxicity (Hepatotoxicity [1]; Liver) | Hepatotoxicity (Hepatotoxicity [2]; Liver) | Hepatotoxicity (Hepatotoxicity [3]; Liver) | Hepatotoxicity (Hepatotoxicity [1]) | Hepatotoxicity (Hepatotoxicity [2]) | Hepatotoxicity (Hepatotoxicity [3])
Nc1ncnc2c1ncn2[C@@H]1O[C@H](CO)[C@@H](O)[C@H]1O [ADENOSINE] | – | – | – | drug-induced liver injury reported | drug-induced liver injury reported | drug-induced liver injury reported
COC(=O)[C@H](c1ccccc1Cl)N1CCc2sccc2C1 [CLOPIDOGREL] | no drug-induced liver injury reported | drug-induced liver injury reported | drug-induced liver injury reported | – | – | –
CCOC(=O)c1ncn2c1CN(C)C(=O)c1cc(F)ccc1-2 [FLUMAZENIL] | – | – | – | no drug-induced liver injury reported | drug-induced liver injury reported | no drug-induced liver injury reported
CCN1CCN(C(=O)N[C@@H](C(=O)N[C@@H]2C(=O)N3C(C(=O)O)=C(CSc4nnnn4C)CS[C@H]23)c2ccc(O)cc2)C(=O)C1=O [CEFOPERAZONE] | – | – | – | no drug-induced liver injury reported | drug-induced liver injury reported | drug-induced liver injury reported
CCN(CC)CC(=O)Nc1c(C)cccc1C [LIDOCAINE] | drug-induced liver injury reported | drug-induced liver injury reported | drug-induced liver injury reported | – | – | –
Cc1ccc(C(=O)c2cc(O)c(O)c([N+](=O)[O-])c2)cc1 [TOLCAPONE] | no drug-induced liver injury reported | drug-induced liver injury reported | drug-induced liver injury reported | – | – | –
Cc1c(OCC(F)(F)F)ccnc1C[S+]([O-])c1nc2ccccc2[nH]1 (stereo not given) [LANSOPRAZOLE] | – | – | – | no drug-induced liver injury reported | drug-induced liver injury reported | no drug-induced liver injury reported
Cc1cccc(C)c1OCC(=O)N[C@@H](Cc1ccccc1)[C@@H](O)C[C@H](Cc1ccccc1)NC(=O)[C@H](C(C)C)N1CCCNC1=O [LOPINAVIR] | – | – | – | no drug-induced liver injury reported | drug-induced liver injury reported | no drug-induced liver injury reported
CCCCCCC(=O)O[C@H]1CC[C@H]2[C@@H]3CCC4=CC(=O)CC[C@]4(C)[C@H]3CC[C@]12C [TESTOSTERONE ENANTHATE] | – | – | – | no drug-induced liver injury reported | no drug-induced liver injury reported | drug-induced liver injury reported
POLYVINYL ALCOHOL | – | – | – | drug-induced liver injury reported | no drug-induced liver injury reported | no drug-induced liver injury reported
Nc1ccc(S(=O)(=O)Nc2ccnn2-c2ccccc2)cc1 [SULFAPHENAZOLE] | – | – | – | no drug-induced liver injury reported | drug-induced liver injury reported | drug-induced liver injury reported
Nc1nc(Cl)nc2c1ncn2[C@@H]1O[C@H](CO)[C@@H](O)[C@@H]1F [CLOFARABINE] | – | – | – | no drug-induced liver injury reported | drug-induced liver injury reported | no drug-induced liver injury reported
CC(=O)N1CCN(c2ccc(OCC3COC(Cn4ccnc4)(c4ccc(Cl)cc4Cl)O3)cc2)CC1 (stereo not given) [KETOCONAZOLE] | – | – | – | drug-induced liver injury reported | drug-induced liver injury reported | drug-induced liver injury reported
Nc1ccc(S(=O)(=O)c2ccc(N)cc2)cc1 [DAPSONE] | no drug-induced liver injury reported | drug-induced liver injury reported | no drug-induced liver injury reported | – | – | –
N=C(N)NC(=O)c1nc(Cl)c(N)nc1N [AMILORIDE] | – | – | – | no drug-induced liver injury reported | drug-induced liver injury reported | drug-induced liver injury reported
CC1=C(CC(=O)O)c2cc(F)ccc2/C1=C\c1ccc(S(C)(=O)=O)cc1 [EXISULIND] | – | – | – | no drug-induced liver injury reported | drug-induced liver injury reported | no drug-induced liver injury reported
CC(C)/N=c1\cc2n(-c3ccc(Cl)cc3)c3ccccc3nc-2cc1Nc1ccc(Cl)cc1 [CLOFAZIMINE] | – | – | – | no drug-induced liver injury reported | drug-induced liver injury reported | no drug-induced liver injury reported
